# Literature values as cited in US11771704B1, “Methods of using rho kinase inhibitors to treat alzheimer's disease” (priority 2020, dated 2023).
# Assays:
# [1] = in vivo, 1-hydroxy metabolite; cited from earlier work
# animal model = settings: in vivo; cited from earlier work
# [2] = biological target: p38 mitogen-activated protein kinase (Homo sapiens, UniProt Q16539); settings: cited from earlier work
# APP/PS1 transgenic mice = settings: 5 and 10 mg/kg/day intraperitoneally (70, 140 mg HED); cited from earlier work
# [3] = tested on: triple transgenic mouse model (APP Swedish, MAPT P301L, and PSEN1 M146V); settings: 10 mg/kg/day intraperitoneally (57 mg HED); cited from earlier work
# triple transgenic mice = settings: 10 or 12 months of age, in water at 30 mg/kg and 100 mg/kg; cited from earlier work
# streptozotocin rats = settings: 5 and 10 mg/kg/day intraperitoneally (226 mg HED); cited from earlier work
# Chain of p38 mitogen-activated protein kinase (Q16539 whole entry): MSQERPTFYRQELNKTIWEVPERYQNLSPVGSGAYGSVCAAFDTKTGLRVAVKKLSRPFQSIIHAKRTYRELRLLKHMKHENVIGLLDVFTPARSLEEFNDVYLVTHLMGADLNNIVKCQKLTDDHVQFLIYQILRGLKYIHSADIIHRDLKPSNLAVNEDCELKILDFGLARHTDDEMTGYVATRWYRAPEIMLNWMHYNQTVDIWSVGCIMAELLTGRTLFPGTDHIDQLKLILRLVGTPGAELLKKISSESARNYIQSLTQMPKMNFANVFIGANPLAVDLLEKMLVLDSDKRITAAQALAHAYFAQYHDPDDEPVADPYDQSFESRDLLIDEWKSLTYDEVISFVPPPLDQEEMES
smiles,measurement,setting,value
"O=S(=O)(c1cccc2c(O)nccc12)N1CCCNCC1 [M3, hydroxyfasudil]",half-life,[1],about 8 hours
O=c1ncn2nc(Sc3ccc(F)cc3F)ccc2c1-c1c(Cl)cccc1Cl [Neflamapimod],efficacy in an animal model,animal model,showed efficacy
same,primary endpoint of improving episodic memory,[2]; Phase 2,failed
same,tau in the cerebrospinal fluid,[2]; Phase 2,reducing
same,Aβ deposition,[2]; humans,no effect
"Cl.O=S(=O)(c1cccc2cnccc12)N1CCCNCC1 [fasudil, Hexahydro-1-(5-Isoquinolinesulfonyl)-1H-1,4-Diazepine Monohydrochloride Hemihydrate]",latency distance and quadrant time in the Morris water maze,APP/PS1 transgenic mice,improved
same,β-amyloid plaques in vivo,[3],reduce
same,spatial memory,triple transgenic mice,did not observe improvements
same,latency distance and quadrant time in the Morris water maze,streptozotocin rats,improved
